The results in this text go back to ChEMBL document CHEMBL3991601, “The target landscape of clinical kinase drugs” (Science, 2017).

Active and inactive are the calls of the source.

Assay [1] deals with Serine/threonine-protein kinase/endoribonuclease IRE2 (Homo sapiens, UniProt Q76MJ5).
Assay [2] deals with Serine/threonine-protein kinase PAK 2 (Homo sapiens, UniProt Q13177).
In assay [3] the target is T1, Delta(24)-sterol reductase (Homo sapiens, UniProt Q15392).
T1 sequence (Q15392 whole entry): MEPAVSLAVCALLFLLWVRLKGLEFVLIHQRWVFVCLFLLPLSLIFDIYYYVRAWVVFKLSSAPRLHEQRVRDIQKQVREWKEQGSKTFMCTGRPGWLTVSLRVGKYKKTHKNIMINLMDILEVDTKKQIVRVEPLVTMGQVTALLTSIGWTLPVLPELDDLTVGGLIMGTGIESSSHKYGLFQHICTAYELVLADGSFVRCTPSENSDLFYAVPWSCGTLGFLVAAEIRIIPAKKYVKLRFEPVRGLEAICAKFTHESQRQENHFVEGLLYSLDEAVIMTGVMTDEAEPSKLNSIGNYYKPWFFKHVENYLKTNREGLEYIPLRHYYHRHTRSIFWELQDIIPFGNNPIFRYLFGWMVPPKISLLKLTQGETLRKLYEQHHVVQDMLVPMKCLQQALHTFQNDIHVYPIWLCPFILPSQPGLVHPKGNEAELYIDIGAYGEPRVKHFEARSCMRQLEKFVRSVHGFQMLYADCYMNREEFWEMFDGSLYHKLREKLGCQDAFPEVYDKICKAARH

For another assay, the target named is Activated CDC42 kinase 1 (Homo sapiens, UniProt Q07912).
Assay [4] addresses T2, MAP kinase-activated protein kinase 5 (Homo sapiens, UniProt Q8IW41).
T2 sequence (Q8IW41 whole entry): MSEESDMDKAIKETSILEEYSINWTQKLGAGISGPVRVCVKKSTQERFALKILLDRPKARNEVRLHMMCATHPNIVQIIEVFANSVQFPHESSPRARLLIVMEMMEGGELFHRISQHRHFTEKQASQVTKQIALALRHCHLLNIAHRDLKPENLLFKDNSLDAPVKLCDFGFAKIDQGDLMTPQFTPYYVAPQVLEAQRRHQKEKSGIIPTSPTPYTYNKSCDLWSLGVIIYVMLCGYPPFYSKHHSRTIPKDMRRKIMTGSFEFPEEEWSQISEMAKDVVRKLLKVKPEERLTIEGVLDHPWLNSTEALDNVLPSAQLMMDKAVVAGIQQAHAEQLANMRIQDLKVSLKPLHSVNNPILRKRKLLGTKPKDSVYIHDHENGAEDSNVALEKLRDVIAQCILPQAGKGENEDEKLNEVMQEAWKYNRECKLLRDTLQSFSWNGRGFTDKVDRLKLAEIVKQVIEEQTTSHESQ

For assay [5], the target named is Tyrosine-protein kinase SYK (Homo sapiens, UniProt P43405).
The target in a further assay is DNA topoisomerase 2-beta (Homo sapiens, UniProt Q02880).
Assay [6] concerns the target T3, Serine/threonine-protein kinase Nek9 (Homo sapiens, UniProt Q8TD19).
T3 sequence (Q8TD19 whole entry): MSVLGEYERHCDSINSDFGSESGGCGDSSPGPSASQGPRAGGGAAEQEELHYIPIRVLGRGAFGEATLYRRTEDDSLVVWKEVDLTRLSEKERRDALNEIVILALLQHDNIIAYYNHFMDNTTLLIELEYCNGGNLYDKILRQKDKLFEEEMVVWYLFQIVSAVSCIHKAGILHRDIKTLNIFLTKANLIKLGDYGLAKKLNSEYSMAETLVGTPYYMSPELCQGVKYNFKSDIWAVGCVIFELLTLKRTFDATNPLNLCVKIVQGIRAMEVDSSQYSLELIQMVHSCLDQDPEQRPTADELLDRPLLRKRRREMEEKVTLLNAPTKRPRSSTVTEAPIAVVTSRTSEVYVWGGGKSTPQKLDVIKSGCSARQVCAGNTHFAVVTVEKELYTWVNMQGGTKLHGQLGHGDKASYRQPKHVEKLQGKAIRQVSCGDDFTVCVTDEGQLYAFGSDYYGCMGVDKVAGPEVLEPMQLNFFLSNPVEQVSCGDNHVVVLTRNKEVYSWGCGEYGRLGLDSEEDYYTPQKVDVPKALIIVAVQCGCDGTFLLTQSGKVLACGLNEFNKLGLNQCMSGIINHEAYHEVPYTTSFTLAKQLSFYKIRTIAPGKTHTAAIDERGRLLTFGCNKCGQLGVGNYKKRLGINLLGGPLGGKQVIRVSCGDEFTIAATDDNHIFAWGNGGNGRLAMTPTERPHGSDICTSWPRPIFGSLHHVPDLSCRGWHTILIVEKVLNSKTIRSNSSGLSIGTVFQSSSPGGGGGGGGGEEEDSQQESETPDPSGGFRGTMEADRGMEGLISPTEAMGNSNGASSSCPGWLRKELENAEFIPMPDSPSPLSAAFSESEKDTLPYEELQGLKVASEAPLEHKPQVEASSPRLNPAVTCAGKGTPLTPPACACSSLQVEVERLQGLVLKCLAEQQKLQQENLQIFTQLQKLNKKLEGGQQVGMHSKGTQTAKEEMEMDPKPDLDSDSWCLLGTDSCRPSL

The target in assay [7] is T4, ATP-dependent RNA helicase DDX1 (Homo sapiens, UniProt Q92499).
T4 sequence (Q92499 whole entry): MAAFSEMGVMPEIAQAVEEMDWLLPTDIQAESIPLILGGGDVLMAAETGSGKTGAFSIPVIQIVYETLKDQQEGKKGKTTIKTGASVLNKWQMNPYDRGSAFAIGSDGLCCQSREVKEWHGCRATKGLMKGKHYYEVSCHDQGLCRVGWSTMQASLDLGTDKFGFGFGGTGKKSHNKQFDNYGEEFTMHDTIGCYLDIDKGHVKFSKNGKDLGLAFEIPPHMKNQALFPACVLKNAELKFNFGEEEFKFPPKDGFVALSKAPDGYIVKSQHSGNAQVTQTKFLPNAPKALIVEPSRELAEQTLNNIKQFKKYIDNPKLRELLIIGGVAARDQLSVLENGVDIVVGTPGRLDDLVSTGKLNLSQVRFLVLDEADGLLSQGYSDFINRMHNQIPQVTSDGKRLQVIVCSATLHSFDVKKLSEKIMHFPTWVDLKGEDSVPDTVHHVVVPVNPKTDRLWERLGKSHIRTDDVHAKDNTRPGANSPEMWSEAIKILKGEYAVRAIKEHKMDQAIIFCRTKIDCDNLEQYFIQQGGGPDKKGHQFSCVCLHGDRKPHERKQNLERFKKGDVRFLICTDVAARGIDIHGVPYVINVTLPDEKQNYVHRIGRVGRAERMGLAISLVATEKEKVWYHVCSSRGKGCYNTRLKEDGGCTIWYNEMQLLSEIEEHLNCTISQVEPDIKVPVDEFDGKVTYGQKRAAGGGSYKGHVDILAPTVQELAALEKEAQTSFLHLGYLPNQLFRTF
Further: in the data inactive means no Kd found up to 30 µM.

Sequence of DNA topoisomerase 2-beta (Q02880 whole entry): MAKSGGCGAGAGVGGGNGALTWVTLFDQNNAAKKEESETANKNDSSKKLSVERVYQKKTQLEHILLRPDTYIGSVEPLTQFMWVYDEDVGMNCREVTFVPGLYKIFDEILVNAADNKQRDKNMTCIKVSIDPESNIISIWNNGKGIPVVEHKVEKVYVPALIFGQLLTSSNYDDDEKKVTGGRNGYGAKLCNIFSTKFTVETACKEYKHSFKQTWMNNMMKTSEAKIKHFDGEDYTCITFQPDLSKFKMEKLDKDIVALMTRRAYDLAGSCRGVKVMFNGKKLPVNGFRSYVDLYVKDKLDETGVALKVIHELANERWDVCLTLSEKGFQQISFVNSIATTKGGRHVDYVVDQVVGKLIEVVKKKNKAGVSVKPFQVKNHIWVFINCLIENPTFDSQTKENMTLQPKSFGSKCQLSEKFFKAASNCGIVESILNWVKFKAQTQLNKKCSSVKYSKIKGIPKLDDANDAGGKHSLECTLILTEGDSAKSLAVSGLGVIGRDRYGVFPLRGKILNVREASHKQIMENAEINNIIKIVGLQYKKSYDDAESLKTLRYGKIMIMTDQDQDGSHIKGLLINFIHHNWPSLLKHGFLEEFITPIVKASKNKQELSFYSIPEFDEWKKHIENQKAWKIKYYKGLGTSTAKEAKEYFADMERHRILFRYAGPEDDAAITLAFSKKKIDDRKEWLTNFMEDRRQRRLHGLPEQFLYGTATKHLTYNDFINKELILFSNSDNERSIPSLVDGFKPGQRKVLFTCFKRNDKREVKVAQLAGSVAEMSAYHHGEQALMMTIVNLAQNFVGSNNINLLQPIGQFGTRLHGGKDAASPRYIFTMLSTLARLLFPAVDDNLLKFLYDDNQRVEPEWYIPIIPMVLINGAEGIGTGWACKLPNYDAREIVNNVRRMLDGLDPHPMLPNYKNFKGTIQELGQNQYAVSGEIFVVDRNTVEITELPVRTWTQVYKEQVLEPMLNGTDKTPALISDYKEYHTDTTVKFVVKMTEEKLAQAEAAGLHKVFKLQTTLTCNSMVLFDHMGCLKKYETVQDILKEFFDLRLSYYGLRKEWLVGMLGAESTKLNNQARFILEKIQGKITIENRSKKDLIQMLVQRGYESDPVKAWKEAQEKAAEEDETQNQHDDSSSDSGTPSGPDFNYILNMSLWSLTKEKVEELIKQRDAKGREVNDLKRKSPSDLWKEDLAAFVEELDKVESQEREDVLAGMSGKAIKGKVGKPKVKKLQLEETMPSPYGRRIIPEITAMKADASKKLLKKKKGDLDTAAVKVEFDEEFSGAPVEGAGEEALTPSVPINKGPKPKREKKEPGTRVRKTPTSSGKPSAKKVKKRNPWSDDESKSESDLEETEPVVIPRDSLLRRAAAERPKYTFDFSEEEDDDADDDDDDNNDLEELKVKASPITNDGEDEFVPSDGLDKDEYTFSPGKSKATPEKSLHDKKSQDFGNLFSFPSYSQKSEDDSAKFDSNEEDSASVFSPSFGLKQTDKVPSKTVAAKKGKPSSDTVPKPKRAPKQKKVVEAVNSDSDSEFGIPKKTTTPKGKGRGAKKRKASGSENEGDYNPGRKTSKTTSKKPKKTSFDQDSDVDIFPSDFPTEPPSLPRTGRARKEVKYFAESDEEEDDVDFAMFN
Sequence of Serine/threonine-protein kinase PAK 2 (Q13177 whole entry): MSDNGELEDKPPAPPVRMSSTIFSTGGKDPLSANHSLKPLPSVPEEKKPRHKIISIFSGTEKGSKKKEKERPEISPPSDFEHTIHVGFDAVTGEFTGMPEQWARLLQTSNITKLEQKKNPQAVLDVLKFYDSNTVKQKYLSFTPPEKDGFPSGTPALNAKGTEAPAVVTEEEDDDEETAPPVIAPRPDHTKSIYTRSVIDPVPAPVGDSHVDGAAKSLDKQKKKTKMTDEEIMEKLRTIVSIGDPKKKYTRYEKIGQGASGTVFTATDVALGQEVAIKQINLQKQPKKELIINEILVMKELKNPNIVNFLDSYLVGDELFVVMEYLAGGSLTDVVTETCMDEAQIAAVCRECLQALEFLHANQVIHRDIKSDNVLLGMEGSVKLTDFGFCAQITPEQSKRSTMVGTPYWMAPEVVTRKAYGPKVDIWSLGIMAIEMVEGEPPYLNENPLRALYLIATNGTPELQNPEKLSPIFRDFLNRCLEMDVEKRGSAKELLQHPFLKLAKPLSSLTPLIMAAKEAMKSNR
Sequence of Activated CDC42 kinase 1 (Q07912 whole entry): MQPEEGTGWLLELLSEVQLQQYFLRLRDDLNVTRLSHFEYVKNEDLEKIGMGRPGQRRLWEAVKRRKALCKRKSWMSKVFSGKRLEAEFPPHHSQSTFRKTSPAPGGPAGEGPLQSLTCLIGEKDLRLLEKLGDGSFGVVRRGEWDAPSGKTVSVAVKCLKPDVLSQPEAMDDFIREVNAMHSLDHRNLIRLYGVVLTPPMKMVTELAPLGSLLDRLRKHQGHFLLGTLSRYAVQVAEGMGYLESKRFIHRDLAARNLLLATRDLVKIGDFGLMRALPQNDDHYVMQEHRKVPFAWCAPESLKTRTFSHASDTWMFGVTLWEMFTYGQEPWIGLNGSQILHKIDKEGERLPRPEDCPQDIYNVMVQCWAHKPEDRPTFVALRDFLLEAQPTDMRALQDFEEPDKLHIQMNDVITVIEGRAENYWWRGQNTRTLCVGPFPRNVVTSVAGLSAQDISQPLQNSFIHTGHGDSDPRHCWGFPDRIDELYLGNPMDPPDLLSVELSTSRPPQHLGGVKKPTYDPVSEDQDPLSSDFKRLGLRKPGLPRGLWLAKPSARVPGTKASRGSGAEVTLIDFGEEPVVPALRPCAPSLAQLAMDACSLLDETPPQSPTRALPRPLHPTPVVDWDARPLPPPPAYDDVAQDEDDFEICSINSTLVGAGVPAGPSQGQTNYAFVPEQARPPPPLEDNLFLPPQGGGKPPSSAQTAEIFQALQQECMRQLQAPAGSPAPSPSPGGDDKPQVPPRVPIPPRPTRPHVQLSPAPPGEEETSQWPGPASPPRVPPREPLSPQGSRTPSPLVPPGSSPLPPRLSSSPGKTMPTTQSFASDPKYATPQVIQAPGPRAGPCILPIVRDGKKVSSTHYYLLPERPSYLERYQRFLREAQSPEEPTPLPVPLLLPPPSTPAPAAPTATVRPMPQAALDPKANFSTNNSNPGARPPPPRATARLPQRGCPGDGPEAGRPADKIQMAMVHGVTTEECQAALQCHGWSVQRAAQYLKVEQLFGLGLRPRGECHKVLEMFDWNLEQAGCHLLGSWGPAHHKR
Sequence of Serine/threonine-protein kinase/endoribonuclease IRE2 (Q76MJ5 whole entry): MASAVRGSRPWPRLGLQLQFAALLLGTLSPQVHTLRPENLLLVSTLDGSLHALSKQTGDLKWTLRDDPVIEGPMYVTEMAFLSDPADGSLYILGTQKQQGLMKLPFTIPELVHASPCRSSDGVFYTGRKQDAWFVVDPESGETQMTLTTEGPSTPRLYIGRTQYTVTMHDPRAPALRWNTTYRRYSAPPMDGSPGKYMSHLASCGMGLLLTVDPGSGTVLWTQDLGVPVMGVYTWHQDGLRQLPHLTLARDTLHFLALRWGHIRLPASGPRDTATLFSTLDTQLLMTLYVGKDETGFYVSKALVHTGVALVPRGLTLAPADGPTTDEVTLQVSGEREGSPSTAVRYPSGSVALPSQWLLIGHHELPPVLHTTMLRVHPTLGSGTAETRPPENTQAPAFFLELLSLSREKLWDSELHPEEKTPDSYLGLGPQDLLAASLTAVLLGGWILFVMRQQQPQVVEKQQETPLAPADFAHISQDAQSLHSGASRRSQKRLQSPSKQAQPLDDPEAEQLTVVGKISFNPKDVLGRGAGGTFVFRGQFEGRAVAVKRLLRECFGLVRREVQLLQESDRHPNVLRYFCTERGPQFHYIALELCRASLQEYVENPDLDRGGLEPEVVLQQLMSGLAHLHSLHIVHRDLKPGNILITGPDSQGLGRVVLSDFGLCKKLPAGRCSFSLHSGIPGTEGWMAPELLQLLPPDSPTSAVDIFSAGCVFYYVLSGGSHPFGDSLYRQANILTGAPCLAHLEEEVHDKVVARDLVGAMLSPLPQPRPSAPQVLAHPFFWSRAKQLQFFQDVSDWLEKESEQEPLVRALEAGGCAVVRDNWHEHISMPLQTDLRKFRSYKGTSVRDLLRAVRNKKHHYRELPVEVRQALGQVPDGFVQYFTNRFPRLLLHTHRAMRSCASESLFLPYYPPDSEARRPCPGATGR

A word on the Kd: it is the concentration at which binding is half-saturated. Take `CC[C@@H]1C(=O)N(C)c2cnc(Nc3ccc(C(=O)N[C@H]4CC[C@H](N5CCN(CC6CC6)CC5)CC4)cc3OC)nc2N1C(C)C` [VOLASERTIB]: the Kd (in assay [1]; in assay [2]; in assay [3]; at Activated CDC42 kinase 1; in assay [4]; in assay [5]) was > 30 µM (inactive) throughout. For the same compound, the Kd (on DNA topoisomerase 2-beta; in [6]; in assay [7]) was > 30 µM (inactive) each time.
As for `Cc1ccc(S(=O)(=O)Nc2nc3ccccc3nc2Nc2ccc3nsnc3c2)cc1`, the Kd (in [1]; in assay [2]; in assay [3]; on Activated CDC42 kinase 1; in assay [4]; in assay [5]) was > 30 µM (inactive) throughout. The Kd (on DNA topoisomerase 2-beta; in [6]; in assay [7]) was > 30 µM (inactive) each time.
Turning to `Cn1cc(-c2ccc(F)c(C(F)(F)F)c2)nc1C1CCN(c2ncnc3[nH]ncc23)CC1` [LY-2584702], the Kd (in assay [1]; in assay [3]; on Activated CDC42 kinase 1; in assay [4]; in assay [5]; at DNA topoisomerase 2-beta) was > 30 µM (inactive) throughout. The Kd in [6] and in assay [7] was > 30 µM (inactive) each time.
As to `C[C@@H](Nc1cc(F)cc(F)c1)c1cc(C(=O)N(C)C)cc2c(=O)cc(N3CCOCC3)oc12` [AZD-8186], the equilibrium dissociation constant (Kd) in assay [1] is 1.5 µM; in assay [3] it was > 30 µM (inactive); on Activated CDC42 kinase 1 it was > 30 µM (inactive); in assay [4], > 30 µM (inactive); in assay [5] it was > 30 µM (inactive); on DNA topoisomerase 2-beta, 0.936 µM (active). Besides, the Kd in assay [6] and in assay [7] was > 30 µM (inactive) each time.
For `Cc1c(F)cc(C(=O)NC2CC2)cc1-c1ccc(C(=O)NCC(C)(C)C)cn1` [LOSMAPIMOD], the Kd (in assay [1]; in assay [3]; at Activated CDC42 kinase 1; in assay [4]; in assay [5]; on DNA topoisomerase 2-beta) was > 30 µM (inactive) in each case. The Kd in assay [6] and in assay [7] was > 30 µM (inactive) in each case.
Regarding `C=CC(=O)N1CCC(Oc2cc3c(Nc4ccc(Cl)c(Cl)c4F)ncnc3cc2OC)CC1` [POZIOTINIB], the Kd (in assay [1]; in [2]; in assay [3]; at Activated CDC42 kinase 1; in [4]; in [5]) was > 30 µM (inactive) each time. In addition, the Kd (at DNA topoisomerase 2-beta; in assay [6]) was > 30 µM (inactive) in each case.
With `C1=C/COCc2cc(ccc2OCCN2CCCC2)Nc2nccc(n2)-c2cccc(c2)COC/1` [PACRITINIB], the Kd is > 30 µM (inactive) in assay [1]; > 30 µM (inactive) in [3]; 9.33 µM (active) on Activated CDC42 kinase 1; > 30 µM (inactive) in assay [4]; > 30 µM (inactive) in [5]; > 30 µM (inactive) on DNA topoisomerase 2-beta. Also, the results for the Kd in assay [6] and in assay [7] were 1.78 µM (active) and > 30 µM (inactive), respectively.
As to `C[C@@H]1CN(Cc2ccc(F)cc2)[C@@H](C)CN1C(=O)c1cc2c(C(=O)C(=O)N(C)C)cn(C)c2cc1Cl` [TALMAPIMOD], the Kd (in assay [1]; in [2]; on Activated CDC42 kinase 1; in assay [4]; in [5]; on DNA topoisomerase 2-beta) was > 30 µM (inactive) throughout. Also, the Kd in assay [6] and in [7] was > 30 µM (inactive) throughout.
For the compound `CCc1cnn2c(NCc3ccc[n+]([O-])c3)cc(N3CCCC[C@H]3CCO)nc12` [DINACICLIB], the Kd (in assay [1]; in assay [2]; in [3]; in assay [4]; in [5]; on DNA topoisomerase 2-beta) was > 30 µM (inactive) throughout. The Kd in assay [6] and in assay [7] was > 30 µM (inactive) in each case.
On to `CN1CCC(COc2cnc(-c3cccc(Cn4nc(-c5cccc(C#N)c5)ccc4=O)c3)nc2)CC1` [TEPOTINIB], for which the Kd (in assay [1]; in [2]; in [3]; on Activated CDC42 kinase 1; in assay [4]; on DNA topoisomerase 2-beta) was > 30 µM (inactive) each time. Besides, the Kd in [6] and in [7] was > 30 µM (inactive) throughout.
On to `C[C@@H](c1ccc2nccn2c1)n1nnc2ncc(-c3cnn(C)c3)nc21` [SAVOLITINIB], for which the Kd (in [1]; in assay [2]; in assay [3]; on Activated CDC42 kinase 1; in assay [4]; in assay [5]) was > 30 µM (inactive) each time. The Kd in [6] and in assay [7] was > 30 µM (inactive) each time.
As for `COc1cc(N2CCC(N3CCN(C)CC3)CC2)ccc1Nc1ncnc(Nc2ccccc2S(=O)(=O)C(C)C)n1` [ASP-3026], the Kd was > 30 µM (inactive) in assay [1]; > 30 µM (inactive) in [3]; 0.005 µM (active) at Activated CDC42 kinase 1; > 30 µM (inactive) in assay [4]; > 30 µM (inactive) in [5]; > 30 µM (inactive) at DNA topoisomerase 2-beta. In addition, the Kd in [6] and in [7] was > 30 µM (inactive) each time.
